From patent publication US20240197761A1, “FUCOSYLATION AND IMMUNE MODULATION IN CANCER” (H. LEE MOFFITT CANCER CENTER AND RESEARCH INSTITUTE, INC., priority 2021, published 2024)

How the values were obtained:
[1] = system: SW1 tumors (shNT, shH2K1, shEB1, EB1 WT or N46G); test: H2K1/EB1 knockdown and glyco-fucomutant EB1 reconstitution mouse model; assay type: in vivo, C3H/HeN mice
Excerpt: All animals were housed at the Vincent A. Stabile Research building animal facility at H. Lee Moffitt Cancer Center & Research Institute, which is fully accredited by the Association for Assessment and Accreditation of Laboratory Animal Care International (AAALAC, #434), and are managed in accordance with the Guide for the Care and Use of Laboratory Animals (“The Guide”), the Animal Welfare Regulations Title 9 Code of Federal Regulations Subchapter A, “Animal Welfare”, Parts 1-3 (AWR), the Public Health Service Policy on Humane Care and Use of Laboratory Animals (PHS Policy), and by the USF Institutional Animal Care and Use Committee's Principles and Procedures of Animal Care and Use (IACUC Principles). The experiments and protocols detailed in this study received institutional approval by the Moffitt IACUC (RIS00001625). Four-to-six-week-old female C3H/HeN and male C57BL6 mice were purchased from Charles Rivers Laboratories for the indicated experiments. Four-to-six-week-old male NSG mice from the Lau laboratory breeding colony were used for the indicated experiments. Power calculations were used to determine mouse cohort sizes to detect significant changes in tumor sizes. In general, 10 mice per indicated cohort to accommodate for incidental loss of mice due to issues beyond our control (e.g., incidental tumor ulceration that required exclusion from the study). Mouse tumor volumes were measured using length, width and depth divided by 2. At each experimental endpoint, mice were humanely euthanized using CO2 inhalation in accordance to the American Veterinary Medical Association guidelines. […] For all mouse models, 1×10^6 melanoma cells were injected subcutaneously in the right hind flanks of each mouse. Between 7-14 days, when the tumor volumes reached ˜150 mm^3, the mice were either supplemented with or without 100 mM L-fucose (Biosynth (Oak Terrace, IL)) via drinking water, which was provided ad libitum. When the tumors reached ˜2 cm^3, the animals were sacrificed, and the tumors either processed for flow cytometric profiling or for histological analysis as indicated. […]

mouse splenic MDSC = test: Splenic MDSC proliferation with L-fuc or 2FF; assay type: cell-based; conditions: FIG. 3E
mouse melanoma tumors = test: Earlier mouse melanoma model with dietary fucose supplementation or FUK overexpression (tumor growth, CD45 and DX5 staining); assay type: in vivo
Experimental: To determine whether dietary or genetic modulation of fucosylation affects tumor growth and metastasis, we previously studied a mouse melanoma model in which tumor fucosylation was increased either by dietary supplementation (FIG. 2A) with 100 mM fucose or by overexpressing mouse FUK (FIG. 2B). […] To determine whether fucosylation affects tumor infiltration by immune cells, Immunofluorescent staining analysis of CD45 (general leukocyte marker, red) and DAPI (blue) was performed (FIG. 2C). To determine whether fucosylation affects tumor infiltration by NK cells, immunofluorescent staining analysis for DX5 (an NK cell marker, red) and DAPI (blue) was performed (FIG. 2D). Both NK cells and CD4+ T cells were elevated in samples from fucose supplemented mice.

BM-derived MDSCs = test: NO production of BM-derived MDSCs (Greiss assay); assay type: cell-based, Balb/C mice; conditions: 250 uM L-fuc prior, during and/or after GM/G-CSF stimulation
Experimental: Tlhe myeloid cells, which were stimulated to imlmuno, suppressive MDSCs using GM/G-CSF, were divided into 3 treatment groups: (i) Treatment±250 uM L-fuc prior, duri ng, and after GM/G-CSF stimulation. Treatment±250 uM L-fuc during and after GM/G-CSF stimulation. (ii) Treatment±250 uM L-fuc only after GM/G-CSF stimulation. Greiss assay timepoints reier to hours after initial dose of L-fuc regardless of when cells were treated, L-fuc abrogated their ability to glenerate NO. […] We subsequently co-cultured the modulated MDSCs wilh T cells, which were then activated or not with CD3/CD28 beads and measured for IFNψ production. *. p •<0.05

HLA-DRB1 in WM793 cells = test: Immunofluorescent subcellular localization of HLA-DRB1; assay type: cell-based, human; conditions: vs. vehicle (DMSO)
Excerpt: FIGS. 18A-18F show N-linked fucosylation of HLA-DRB1 at N48 regulates its cell surface localization and is required for tumor suppression and increased TIL abundance. (a) (upper) Amino acid sequence alignments showing conservation of predicted N- and O-linked fucosylation sites in human HLA-DRB1 (N48 and T129) and mouse H2EB1 (N46 and T147). Structural modeling of the HLA-DRB1:HLA-DM (lower left) and CD4:HLA-DRB1:TCR (lower right) complexes. Potential glycosylation sites, N48 and T129, of HLA-DR1 beta chain are shown as sticks. CD4 (cyan), HLA-DRB1 (yellow), antigen peptide (magenta), and TCR (green)(lower right). (b) HLA-DRB1 peptide fragment identified by nano-LC/MS to be fucosylated on N48, with predicted HexNAc(4)Hex(3)Fuc(1) glycan structure shown above. (c) Lectin pull down (LPD) and IB analyses of EV and V5-tagged wild-type HLA-DRB1 (WT)-, HLA-DRB1 N48G (N48G)-, and HLA-DRB1 T129A (T129A)-expressing WM793 cells. (d) DMSO- or fucosyltransferase inhibitor (FUTi)-treated WM793 cells immunofluorescently stained for endogenous HLA-DRB1, KDEL (ER marker), and DAPI (20× magnification). […]

SMILES	L-fuc-triggered tumor suppression and induction of total itICs ([1]; EB1 knockdown)	control (shNT) tumor growth ([1]; non-targeting shRNA SW1 tumors)	L-fuc-induced TIL and tumor growth suppression after EB1 knockdown and reconstitution ([1]; shEB1 tumors reconstituted with EB1 WT or N46G)	MDSC proliferation / MDSC populations (mouse splenic MDSC)	MDSC proliferation / MDSC populations (mouse splenic MDSC; listed as L-fuc)	block of tumor growth and metastasis (mouse melanoma tumors; dietary L-fucose supplementation, mouse models) [%]	tumor suppression (mouse melanoma tumors; dietary supplementation with 100 mM fucose (FIG. 2A))	NK cells and CD4+ T cells in tumor samples (mouse melanoma tumors; fucose supplemented mice (FIG. 2C, 2D))	NO production (BM-derived MDSCs)	subcellular localization of HLA-DRB1 (HLA-DRB1 in WM793 cells)
C[C@H](O)[C@@H](O)[C@@H](O)[C@H](O)C=O [L-fucose]	completely abolished	impaired	rescued by reconstitution with only WT but not glyco-fucomutant EB1	increased	increases	> 50	increased tumor suppression	elevated	abrogated	–
CC(=O)OC1O[C@@H](C)[C@@H](OC(C)=O)[C@@H](OC(C)=O)[C@@H]1F (stereo partly shown) [FUTi, 2F-peracteyl-fucose, reference compound]	–	–	–	–	–	–	–	–	–	dimmer, more central, endoplasmic reticulum-co-localization of HLA-DRB1
